Measurements published in patent US20150051262A1, “NMDA RECEPTOR MODULATORS AND USES THEREOF” (Northwestern University, priority 2011, published 2015).
Residues, ends and D or L forms follow the SMILES beside them.

Legend:
[1] = Metabolic stability in liver microsomes, rat; assay type: in vitro ADME; details: Rat (M) microsomes
Procedure: (§1) Metabolic stability was assessed in liver microsomes as well as in hepatocytes with few compounds.
(§2) Procedure for microsomal stability: • Species: Rat and human • Test concentration: 1 μM (n=2) • Protein concentration: 0.125 mg/mL • Time points: 0, 5, 15, 30 and 60 minutes • Controls: Minus NADPH and buffer • Analysis: Parent compound monitoring LC-MS/MS (Peak area ratios)

ultrasonic vocalizations = assay: Rat ultrasonic vocalizations (USVs) test; assay type: in vivo, SD rats; details: 1 mg/kg PO, 1 hr before testing
Procedure: FIGS. 14A and 14B show the results of the rat USVs test. Positive emotional learning was measured during the conditioned stimulus (CS) trials preceding the tickle unconditioned stimulus (UCS) trials (FIG. 14A). Animals received 15 second trials consisting of 6 CS and 6 UCS trials each (3 min total). Running speed for animals to self administer tickling at the end of the 3 min session was also measured. […] N=7-8. *P<0.05.

open field behavior = assay: Rat open field test; assay type: in vivo, SD rats; details: 1 mg/kg PO, 1 hr before test, FIG. 15
[2] = Metabolic stability in liver microsomes, human; assay type: in vitro ADME; details: Human (M) microsomes
Procedure: as §1, §2

floating behavior [3] = assay: Porsolt test procedure 1; assay type: in vivo, Sprague-Dawley rats
Procedure: Animals were placed in a 46 cm tall×20 cm in diameter clear glass tube filled to 30 cm with tap water at room temperature (23° C.±0.5° C.) for 5 min on the test day. All animals were towel dried after each swimming session by the experimenter. Water was changed after every other animal. Animals were videotaped and total duration (sec) of floating behavior (as defined as the minimal movement required in order to maintain the animal's head above the water) was quantified by a blind experimenter.

[4] = Bioavailability of CM-4A (plasma concentration after IV/PO dosing); assay type: in vivo, Sprague Dawley rats; details: 0.1 to 10 mg/kg PO, rat plasma, FIG. 1
Procedure: Procedure. […] Data for male and female were combined for 1 mg/kg PO dosing given that no gender difference was seen. Plasma was separated by centrifugation (1,000×G for 10 min at 4° C.) and plasma samples stored at −80° C. until assay. […]. On the day of the assay, samples and spiked plasma standards were thawed at 4° C., extracted in 3 volumes of ice cold acetonitrile, centrifuged at 25,000×G for 10 min at 4° C., and the supernatant was loaded into autosampler vials (4° C.).

[5] = tested on: long-term depression (LTD); assay: Long-term depression (LTD) in hippocampal slices; assay type: cell-based; details: 1 μM, FIG. 7
Procedure: (Note 0.001 μM represents no drug addition; Each point is mean±SEM of 8-10 slices).

in vitro = details: dog, MDCK; for Papp: concentration 5 μM
Procedure: (§3) Procedure. Permeability of test compounds was assessed using MDCK (Madin-Darby Canine Kidney Cells) using the below parameters. • Test concentration: 5 μM (n=3) • Buffer: HBSS pH 7.4 • Time points: 0, 15, 30, 60 and 90 min • Analysis: Parent compound monitoring using LC-MS/MS

floating behavior [6] = assay: Porsolt test procedure 2; assay type: in vivo, Sprague Dawley rats
fall latencies = assay: Rat accelerating rota-rod test; assay type: in vivo, SD rats; details: 10-100 mg/kg PO, 30 and 60 min post-dosing, FIG. 16
Procedure: Animals were tested immediately before dosing (0 min), 30 min post-dosing, and 60 min post-dosing using a within subjects design.

latency to eat = assay: Rat novelty-induced hypophagia (NIH) test; assay type: in vivo, SD rats; details: 1 mg/kg PO, 1 hr before test, FIG. 13
Procedure: The rat NIH test was conducted as follows. Animals were food deprived overnight before testing, and lab chow was placed into the center chamber of the open field. After NIH testing, the latency to eat in the animals' home cage was determined as a control. […] N=12 per group. *P<0.05.

floating behavior [7] = assay: Porsolt test procedure 2; assay type: in vivo, Sprague Dawley rats; details: 1 hr post-dosing
Procedure: The antidepressant-like effects of test compounds were examined with the rat Porsolt test as described in Page et al. (1999) and Burgdorf et al. (2009). Male Sprague Dawley rats (2-3 month old) were used in this study. Animals were dosed with test compounds (0.3 mg/kg IV) or sterile saline vehicle (1 ml/kg IV tail vein) 1 hr before a single test session. […] Water was changed after every other animal. […] CM-6A, CM-7A, CM-8A, and CM-9A were tested in the Porsolt test. CM-5A was not tested in the Porsolt test.
Animals received a single 15 min Porsolt habituation session on the day before the first 5 min Porsolt test. N=6 per group. *P<0.05 Fisher's PLSD post hoc test vs. vehicle.

[8] = Metabolic stability in hepatocytes, rat; assay type: in vitro ADME; details: Rat (H) hepatocytes, 10 μM
Procedure: as §1
(§4) Procedure for hepatocyte stability: • Stock preparation: DMSO • Buffer: Krebs Henseleit Buffer • Total Incubation volume: […] • Cell density: 1 million cells/mL • Test concentration: 10 μM with 0.5% DMSO (n=2) • Time points: 0 and 60 min • Analysis: LC-MS/MS

[9] = tested on: MDCK (Madin-Darby Canine Kidney Cells); assay: in vitro; details: concentration 5 μM
Procedure: as §3

[10] = Metabolic stability in hepatocytes, human; assay type: in vitro ADME; details: Human (H) hepatocytes, 10 μM
Procedure: as §1, §4

[11] = tested on: Schaffer collateral-evoked NMDA EPSCs in CA1 pyramidal neurons; assay: Long-term potentiation (LTP) assay procedure 2; assay type: cell-based, Sprague-Dawley rats; details: 1 μM, FIG. 8, P<0.05
Procedure: Assays were conducted as described in Zhang et al. (2008). Sprague-Dawley rats (12-18 days old; Taconic Farms) were deeply anesthetized with isoflurane and decapitated. Brains was removed rapidly, submerged in ice-cold artificial cerebrospinal fluid (ACSF, 2-4° C.), which contained (in mM): 124 NaCl, 4 KCl, 2 MgSO4, 2 CaC12, 1.25 NaH2PO4, 26 NaHCO3, 10 glucose; at pH 7.4, gassed continuously with 95% O2/5% CO2). Brains were hemisected, the frontal lobes cut off, and individual hemispheres glued using cyanoacrylate adhesive onto a stage immersed in ice-cold ACSF gassed continuously with 95% O2/5% CO2 during slicing. […] Bath application of test compounds (1 μM) was applied 30 min prior to application of Schaffer collateral stimulus trains to elicit LTP. LTP was induced by stimulation of Schaffer collateral axons with four high frequency theta burst stimulus trains of 10×100 Hz/5 pulse bursts each, applied at an inter-burst interval of 200 ms. Each train was 2 s in duration, and trains were applied 15 s apart.

[12] = Kinetic aqueous solubility (pION method); assay type: physicochemical; details: pH 7.4, conc. tested 200 μM with 1% DMSO, 16 h incubation

**Q.** For `C[C@@H](O)[C@H](N)C(=O)N1CCC[C@H]1C(=O)N1CCC[C@@]1(Cc1ccccc1)C(=O)N[C@H](C(N)=O)[C@@H](C)O` [CM-4A, (R)-N-((2S,3R)-1-amino-3-hydroxy-1-oxobutan-2-yl)-1-((S)-1-((2S,3R)-2-amino-3-hydroxybutanoyl)pyrrolidine-2-carbonyl)-2-benzylpyrrolidine-2-carboxamide], which “% Remaining at 60 minutes” value ([1]; 1 μM) is on record?
**A.** 68%

**Q.** And the “Stability Class” value ([1]; 1 μM)?
**A.** Unstable (% Remaining <70%)

**Q.** And the half-life at 1 μM ([1]; liver microsomes)?
**A.** > 1 h

**Q.** And the positive emotional learning (ultrasonic vocalizations; FIG. 14A)?
**A.** increases positive emotional learning

**Q.** And the “aversive 20-kHz USVs” value (ultrasonic vocalizations; FIG. 14B)?
**A.** decreases aversive 20-kHz USVs

**Q.** What about the “center compartment crosses and time (anxiolytic-like effect)” value (open field behavior) of the same compound?
**A.** produces an anxiolytic-like effect

**Q.** What about the “locomotor behavior (line crosses)” value (open field behavior) of the same compound?
**A.** without effecting locomotor behavior

**Q.** What about the “% Remaining at 60 minutes” value ([2]; 1 μM) of the same compound?
**A.** 72%

**Q.** What about the “Stability Class” value ([2]; 1 μM) of the same compound?
**A.** Moderate (% Remaining 70-90%)

**Q.** What about the half-life at 1 μM ([2]; liver microsomes) of the same compound?
**A.** > 1 h

**Q.** And the “floating time in the rat Porsolt test (dose response)” value (floating behavior [3]; 0.1 to 10 mg/kg PO, FIG. 9)?
**A.** dose- and time-dependent antidepressant effect

**Q.** What about the “oral bioavailability (dose linearity)” value [4] of the same compound?
**A.** essentially linear

**Q.** And the “magnitude of LTD” value [5]?
**A.** significantly reduced the magnitude of LTD

**Q.** What about the recovery at 5 μM (in vitro; pH 7.4) of the same compound?
**A.** 100%

**Q.** And the Papp (in vitro; pH 7.4, Papp (10^−6 cm/sec), HBSS pH 7.4)?
**A.** 0.15 ×10⁻⁶ cm/s

**Q.** What about the Papp (in vitro; pH 7.4, Permeability classification) of the same compound?
**A.** < 3 ×10⁻⁶ cm/s

**Q.** And the “floating time in the rat Porsolt test” value (floating behavior [6]; positive control, 1 mg/kg PO, 1 hr and 24 hrs post dosing, FIG. 12)?
**A.** robust Antidepressant-like effects

**Q.** And the “fall latencies (sedative/ataxia like effect)” value (fall latencies)?
**A.** does not produce a sedative/ataxia like effect

**Q.** And the “latency to eat in the NIH test” value (latency to eat)?
**A.** produces an antidepressant/anxiolytic-like effect

**Q.** With `C[C@@H](O)[C@H](N)C(=O)N1CCC[C@H]1C(=O)N1CCC[C@@]1(Cc1ccc(F)cc1)C(=O)N[C@H](C(N)=O)[C@@H](C)O` [CM-6A, (R)-N-((2S,3R)-1-amino-3-hydroxy-1-oxobutan-2-yl)-1-((S)-1-((2S,3R)-2-amino-3-hydroxybutanoyl)pyrrolidine-2-carbonyl)-2-(4-fluorobenzyl) pyrrolidine-2-carboxamide] as the compound, how does the “% Remaining at 60 minutes” value ([1]; 1 μM) read?
**A.** 100%

**Q.** And the “Half-life” value ([1]; 1 μM)?
**A.** >1 h

**Q.** What about the “Stability Class” value ([1]; 1 μM) of the same compound?
**A.** Stable (% Remaining >90%)

**Q.** And the “% Remaining at 60 minutes” value ([2]; 1 μM)?
**A.** 88%

**Q.** What about the “Half-life” value ([2]; 1 μM) of the same compound?
**A.** >1 h

**Q.** What about the “Stability Class” value ([2]; 1 μM) of the same compound?
**A.** Moderate (% Remaining 70-90%)

**Q.** And the “floating time in the Porsolt test” value (floating behavior [7]; single dose 0.3 mg/kg IV, FIG. 11A)?
**A.** produced an antidepressant-like effect

**Q.** What about the “floating time in the Porsolt test” value (floating behavior [7]; single dose (0.3 mg/kg IV), FIG. 11B) of the same compound?
**A.** produced an antidepressant-like effect

**Q.** What about the “% Remaining at 60 minutes” value [8] of the same compound?
**A.** 87%

**Q.** What about the “Half-life” value [8] of the same compound?
**A.** >1 h

**Q.** What about the “Stability Class” value [8] of the same compound?
**A.** Moderate (% Remaining 70-90%)

**Q.** And the Permeability classification [9]?
**A.** Low (≦3 × 10^−6 cm/sec)

**Q.** What about the Recovery [9] of the same compound?
**A.** 100

**Q.** What about the “floating time in the Porsolt test” value (floating behavior [6]; single dose (0.3 mg/kg IV), 24 hrs post-dosing, FIG. 11C) of the same compound?
**A.** produced an antidepressant-like effect

**Q.** What about the “% Remaining at 60 minutes” value [10] of the same compound?
**A.** 98%

**Q.** What about the “Half-life” value [10] of the same compound?
**A.** >1 h

**Q.** And the “Stability Class” value [10]?
**A.** Stable (% Remaining >90%)

**Q.** And the “long-term potentiation after high frequency stimulation (fEPSP slope)” value [11]?
**A.** increased long-term potentiation

**Q.** And the “Mean Solubility (N = 3) at pH” value [12]?
**A.** >200

**Q.** Which “magnitude of LTD” value [5] does the source give for `C[C@@H](O)[C@H](N)C(=O)N1CCC[C@H]1C(=O)N1CCC[C@H]1C(=O)N[C@H](C(N)=O)[C@@H](C)O` [GLYX-13, reference compound] (H-TPPT-NH2) here?
**A.** significantly reduced the magnitude of LTD

**Q.** Which “floating time in the rat Porsolt test, NBQX pretreatment” value (floating behavior [3]; NBQX 10 mg/kg IP 10 min before CM-4A 1 mg/kg PO, FIG. 10) does the source give for `NS(=O)(=O)c1cccc2c1c([N+](=O)[O-])cc1[nH]c(=O)c(=O)[nH]c12` [NBQX, 2,3-dihydroxy-6-nitro-7-sulfamoyl-benzo[f]quinoxaline-2,3-dione, reference compound] here?
**A.** blocks the antidepressant-like effect of CM-4A
